Read-outs that look alike come from different tables or passages of the source. Values belong to the compound of their own block, whether it stands above or below them.
How the values were obtained:
type II (β) receptors = settings: activity of estradiol set at 100; cited from earlier work
Lactobacillus casei = assay: metabolism of soybean extract isoflavones in microbial culture, HPLC assay; format: in vitro ADME
Experimental: (§1) At each of these times, a sample is removed from the microbial cultures, diluted with an equal volume of methanol and then filtered. In each case, the methanolic solution is analyzed by high performance liquid chromatography. […] In this way, the contents of the aglycone and glycosylated forms in the metabolized extract are calculated with respect to the glycosylated forms (100%) in the initial extract.

[1] = test system: Propionibacterium acidipropionici; assay: as above; format: in vitro ADME
Experimental: as §1

Lactobacillus plantarum = assay: as above; format: in vitro ADME
Experimental: as §1

[2] = test system: Lactobacillus acidophilus; assay: as above; format: in vitro ADME
Experimental: as §1

Lactobacillus brevis = assay: as above; format: in vitro ADME
Experimental: as §1

Lactobacillus rhamnosus = assay: as above; format: in vitro ADME
Experimental: as §1

[3] = test system: Streptococcus thermophilus; assay: as above; format: in vitro ADME
Experimental: as §1

Enterococcus faecium = assay: as above; format: in vitro ADME
Experimental: as §1

Pediococcus acidilactici = assay: as above; format: in vitro ADME
Experimental: as §1

osteoclastic activity = settings: cited from earlier work
bone = settings: cited from earlier work
[4] = selecting isoflavone-metabolizing microorganisms; settings: microbial culture with soybean extract
Experimental: At each of these times, a sample is removed from the microbial cultures, diluted with an equal volume of methanol and then filtered. In each case, the methanolic solution is analyzed by high performance liquid chromatography. High performance liquid chromatography is used to assay daidzine, genistine, daidzein and genistein in the initial extract and in the media metabolized by the different microorganisms. In this way, the contents of the aglycone and glycosylated forms in the metabolized extract are calculated with respect to the glycosylated forms (100%) in the initial extract.

Compound: O=c1c(-c2ccc(O)cc2)coc2cc(O)ccc12 [Daidzein, daidzein]
estrogenic activity (type II (β) receptors): 0.013

content in the metabolized extract with respect to the glycosylated forms (100%) in the initial extract (Lactobacillus casei): 80% | content in the metabolized extract with respect to the glycosylated forms (100%) in the initial extract [1]: 33% | content in the metabolized extract with respect to the glycosylated forms (100%) in the initial extract (Lactobacillus plantarum): 75% | content in the metabolized extract with respect to the glycosylated forms (100%) in the initial extract [2]: 16% | content in the metabolized extract with respect to the glycosylated forms (100%) in the initial extract (Lactobacillus brevis): 16% | content in the metabolized extract with respect to the glycosylated forms (100%) in the initial extract (Lactobacillus rhamnosus): 26% | content in the metabolized extract with respect to the glycosylated forms (100%) in the initial extract [3]: 65% | content in the metabolized extract with respect to the glycosylated forms (100%) in the initial extract (Enterococcus faecium; 72 h): 0.1% | content in the metabolized extract with respect to the glycosylated forms (100%) in the initial extract (Pediococcus acidilactici): 77%
Compound: O=c1c(-c2ccc(O)cc2)coc2cc(O[C@@H]3O[C@H](CO)[C@@H](O)[C@H](O)[C@H]3O)ccc12 [Daidzine, daidzine]

content in the metabolized extract with respect to the glycosylated forms (100%) in the initial extract (Lactobacillus casei; Lactobacillus casei culture, time not given): 13% | content in the metabolized extract with respect to the glycosylated forms (100%) in the initial extract ([1]; Propionibacterium acidipropionici culture, time not given): 72% | content in the metabolized extract with respect to the glycosylated forms (100%) in the initial extract (Lactobacillus plantarum; Lactobacillus plantarum culture, time not given): 44% | content in the metabolized extract with respect to the glycosylated forms (100%) in the initial extract ([2]; Lactobacillus acidophilus culture, time not given): 83% | content in the metabolized extract with respect to the glycosylated forms (100%) in the initial extract (Lactobacillus brevis; Lactobacillus brevis culture, time not given): 81% | content in the metabolized extract with respect to the glycosylated forms (100%) in the initial extract (Lactobacillus rhamnosus; Lactobacillus rhamnosus culture, time not given): 85% | content in the metabolized extract with respect to the glycosylated forms (100%) in the initial extract ([3]; Streptococcus thermophilus culture, time not given): 25% | content in the metabolized extract with respect to the glycosylated forms (100%) in the initial extract (Enterococcus faecium; Enterococcus faecium culture, cultured 24, 48 and 72 hours, time not given): 80% | content in the metabolized extract with respect to the glycosylated forms (100%) in the initial extract (Pediococcus acidilactici; Pediococcus acidilactici culture, time not given): 30%
Compound: O=c1c(-c2ccc(O)cc2)coc2cc(O)cc(O)c12 [Genistein, genistein]
estrogenic activity (type II (β) receptors): 0.084 | osteoclastic activity (osteoclastic activity): inhibits osteoclastic activity

content in the metabolized extract with respect to the glycosylated forms (100%) in the initial extract (Lactobacillus casei; Lactobacillus casei): 85% | content in the metabolized extract with respect to the glycosylated forms (100%) in the initial extract ([1]; Propionibacterium acidipropionici): 12% | content in the metabolized extract with respect to the glycosylated forms (100%) in the initial extract (Lactobacillus plantarum; Lactobacillus plantarum): 53% | content in the metabolized extract with respect to the glycosylated forms (100%) in the initial extract ([2]; Lactobacillus acidophilus): 6.5% | content in the metabolized extract with respect to the glycosylated forms (100%) in the initial extract (Lactobacillus brevis; Lactobacillus brevis): 2% | content in the metabolized extract with respect to the glycosylated forms (100%) in the initial extract (Lactobacillus rhamnosus; Lactobacillus rhamnosus): 5% | content in the metabolized extract with respect to the glycosylated forms (100%) in the initial extract ([3]; Streptococcus thermophilus): 73% | content in the metabolized extract with respect to the glycosylated forms (100%) in the initial extract (Enterococcus faecium; Enterococcus faecium, 72 h): 5.5% | content in the metabolized extract with respect to the glycosylated forms (100%) in the initial extract (Pediococcus acidilactici; Pediococcus acidilactici): 63%
Compound: O=c1c(-c2ccc(O)cc2)coc2cc(O[C@@H]3O[C@H](CO)[C@@H](O)[C@H](O)[C@H]3O)cc(O)c12 [Genistine, genistine]

Compound: Oc1ccc([C@H]2COc3cc(O)ccc3C2)cc1 [equol, reference compound]
estrogenic activity (type II (β) receptors): 0.61

Compound: CC(C)Oc1ccc2c(=O)c(-c3ccccc3)coc2c1 [ipriflavone]
bone gain (bone; 500 to 600 mg per day, 40 menopausal women suffering from osteoporosis): bone gain at the level of L1-L5, with a return to normal in 12 months | bone losses (bone; women being treated with LHRH agonists): possible to avoid bone losses

Compound: Lactobacillus acidophilus
ranking of strains by isoflavone-metabolizing activity [4]: the most active strains

Compound: estradiol [reference compound]
estrogenic activity (type II (β) receptors): 100

Reference: US20020114786A1, “Pharmaceutical preparations comprising soybean isoflavone extracts and probiotic microogranisms” (priority 2000, published 2002)
